From PMC6409486 (Stem Cell Reports, 2019)
“Also recorded” adds a separate entry of the source. Where two headings read alike, the source gives them in different places.

How the values were obtained:
mouse ESC-derived MNs [1] = assay: MN survival with activated BV2 cells; assay type: cell-based
mouse ESC-derived MNs [2] = assay: MN survival with DetaNO; assay type: cell-based
mouse ESC-derived MNs [3] = assay: Compounds on unstressed MNs; assay type: cell-based; details: for toxicity to unstressed MNs: absence of any stress; for survival of unstressed MNs: unstressed conditions
mouse ESC-derived MNs [4] = assay: CHIR rescue of CP681301-mediated cytotoxicity; assay type: cell-based; details: 5 μM CP681301, increasing concentrations of CHIR (1.25-2.5 µM)
human iPSC-derived MNs [5] = assay: TUBB3 immunostaining and neurite segmentation of human MNs with DetaNO; assay type: cell-based
CDK7 [6] = biological target: T1, CDK7 (Homo sapiens, UniProt P50613); details: 10 μM; ref Fabian et al., 2005; http://lincs.hms.harvard.edu/db/datasets/20044/; cited from earlier work
CDK9 [7] = biological target: T2, CDK9 (Homo sapiens, UniProt P50750); details: 10 μM; ref Fabian et al., 2005; http://lincs.hms.harvard.edu/db/datasets/20044/; cited from earlier work
human iPSC-derived MNs [8] = assay: CellTiter-Glo assay, human MNs stressed with 400 μM DetaNO; assay type: cell-based
GSK3β = GSK3β (Homo sapiens, UniProt P49841); details: 1 μM; ref Chen et al., 2016; cited from earlier work
[9] = system: FACS-purified mouse ESC-derived MNs; assay: FACS-purified MNs cultured with DetaNO in the absence of astrocytes; assay type: cell-based
CDK7 [10] = biological target: T1, CDK7; assay: CDK7 LANCE Assay; details: biochemical profiling
iPSC-derived MNs = assay: Label-free quantitative phosphoproteomics of DetaNO-treated MNs; assay type: cell-based, human
CDK9 [11] = biological target: T2, CDK9; assay: CDK9 LANCE Assay; details: biochemical profiling

T2 sequence (P50750 whole entry, species assumed): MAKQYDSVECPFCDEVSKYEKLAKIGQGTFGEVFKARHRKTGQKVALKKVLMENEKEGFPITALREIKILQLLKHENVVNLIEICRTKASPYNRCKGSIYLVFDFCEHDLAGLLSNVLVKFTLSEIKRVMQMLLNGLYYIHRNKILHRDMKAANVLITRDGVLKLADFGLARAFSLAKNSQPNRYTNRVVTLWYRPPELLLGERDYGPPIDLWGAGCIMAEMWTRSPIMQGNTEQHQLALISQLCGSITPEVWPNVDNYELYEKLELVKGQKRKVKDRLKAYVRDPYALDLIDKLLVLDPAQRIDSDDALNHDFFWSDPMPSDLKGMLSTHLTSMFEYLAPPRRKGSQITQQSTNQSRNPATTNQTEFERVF
T2 sequence (O60563 whole entry partner, species assumed): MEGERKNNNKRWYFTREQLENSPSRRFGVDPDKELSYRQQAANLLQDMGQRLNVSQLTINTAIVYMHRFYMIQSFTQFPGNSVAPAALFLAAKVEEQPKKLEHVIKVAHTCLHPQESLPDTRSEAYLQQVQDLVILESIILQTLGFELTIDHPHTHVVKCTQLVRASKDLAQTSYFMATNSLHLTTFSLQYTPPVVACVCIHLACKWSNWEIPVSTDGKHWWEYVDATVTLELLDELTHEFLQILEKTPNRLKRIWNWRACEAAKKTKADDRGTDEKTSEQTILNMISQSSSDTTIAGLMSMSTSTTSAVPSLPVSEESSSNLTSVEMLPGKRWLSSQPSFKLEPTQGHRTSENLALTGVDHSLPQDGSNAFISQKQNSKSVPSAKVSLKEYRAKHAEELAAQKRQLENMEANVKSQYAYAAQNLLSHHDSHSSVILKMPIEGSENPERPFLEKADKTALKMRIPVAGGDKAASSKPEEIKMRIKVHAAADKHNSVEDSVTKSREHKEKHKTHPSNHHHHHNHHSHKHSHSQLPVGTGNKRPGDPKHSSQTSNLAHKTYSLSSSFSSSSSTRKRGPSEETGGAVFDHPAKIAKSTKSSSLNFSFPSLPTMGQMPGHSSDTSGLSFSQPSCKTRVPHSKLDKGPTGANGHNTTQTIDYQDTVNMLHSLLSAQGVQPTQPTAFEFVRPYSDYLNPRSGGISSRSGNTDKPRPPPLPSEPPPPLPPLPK
T1 sequence (P50613 whole entry, species assumed): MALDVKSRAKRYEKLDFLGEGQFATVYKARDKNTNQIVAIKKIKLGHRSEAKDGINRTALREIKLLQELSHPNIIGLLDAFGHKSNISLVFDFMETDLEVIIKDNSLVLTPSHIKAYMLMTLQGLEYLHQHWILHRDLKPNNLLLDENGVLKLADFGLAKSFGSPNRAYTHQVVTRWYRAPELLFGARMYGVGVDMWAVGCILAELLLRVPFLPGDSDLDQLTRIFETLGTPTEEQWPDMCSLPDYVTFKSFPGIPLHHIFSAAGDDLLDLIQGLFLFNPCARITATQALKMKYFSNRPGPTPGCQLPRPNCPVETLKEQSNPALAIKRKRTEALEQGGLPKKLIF
T1 sequence (P51946 whole entry partner, species assumed): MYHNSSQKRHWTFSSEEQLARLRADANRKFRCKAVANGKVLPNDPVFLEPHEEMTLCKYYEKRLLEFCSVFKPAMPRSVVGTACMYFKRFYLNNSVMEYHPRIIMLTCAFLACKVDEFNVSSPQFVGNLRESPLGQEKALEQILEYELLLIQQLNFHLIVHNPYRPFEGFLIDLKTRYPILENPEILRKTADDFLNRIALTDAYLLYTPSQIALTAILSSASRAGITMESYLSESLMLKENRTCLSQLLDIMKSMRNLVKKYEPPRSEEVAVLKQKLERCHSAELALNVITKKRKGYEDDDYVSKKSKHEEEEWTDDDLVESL
T1 sequence (P51948 whole entry partner, species assumed): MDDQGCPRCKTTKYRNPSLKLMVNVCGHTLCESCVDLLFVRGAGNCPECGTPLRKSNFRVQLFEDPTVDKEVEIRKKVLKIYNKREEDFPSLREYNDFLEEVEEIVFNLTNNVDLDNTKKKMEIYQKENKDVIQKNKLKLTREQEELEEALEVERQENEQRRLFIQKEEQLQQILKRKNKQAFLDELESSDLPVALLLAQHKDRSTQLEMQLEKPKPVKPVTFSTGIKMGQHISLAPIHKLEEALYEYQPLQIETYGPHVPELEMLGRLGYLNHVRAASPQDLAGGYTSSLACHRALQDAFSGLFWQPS
GSK3β, sequence (P49841 whole entry, species assumed): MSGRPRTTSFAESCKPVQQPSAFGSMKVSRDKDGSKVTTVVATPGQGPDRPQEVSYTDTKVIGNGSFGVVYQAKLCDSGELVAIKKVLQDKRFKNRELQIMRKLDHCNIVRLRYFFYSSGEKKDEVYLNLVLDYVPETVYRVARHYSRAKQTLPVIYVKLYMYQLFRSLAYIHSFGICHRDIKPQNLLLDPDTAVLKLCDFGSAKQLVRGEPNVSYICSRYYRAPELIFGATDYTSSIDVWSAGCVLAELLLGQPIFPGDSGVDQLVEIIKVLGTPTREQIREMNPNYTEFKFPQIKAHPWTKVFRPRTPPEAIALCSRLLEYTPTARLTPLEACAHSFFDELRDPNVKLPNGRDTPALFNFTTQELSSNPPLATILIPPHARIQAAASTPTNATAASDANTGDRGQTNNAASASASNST

## CC1CCN=C(N)S1 (centres unmarked) [AMT, 2-amino-5,6-dihydro-6-methyl-4H-1,3-thiazine]
Mouse ESC-derived MNs [1]
  protection of MNs from activated BV2-induced degeneration (words): rescued

## CC(C)(C)c1cnc(CSc2cnc(NC(=O)C3CCNCC3)s2)o1 [BMS-387032]
Mouse ESC-derived MNs [2]
  protection of MNs from DetaNO-induced degeneration (words): robustly protected; also recorded: rescued
Mouse ESC-derived MNs [1]
  protection of MNs from activated BV2-induced degeneration (words): robustly protected; also recorded: rescued
Mouse ESC-derived MNs [3]
  toxicity to unstressed MNs: induced toxicity

## Cc1c[nH]c(-c2cnc(NCCNc3ccc(C#N)cn3)nc2-c2ccc(Cl)cc2Cl)n1 [CHIR]
Mouse ESC-derived MNs [4]
  rescue of MNs from CP681301-mediated cytotoxicity: rescued
Mouse ESC-derived MNs [2]
  protection of MNs from DetaNO-induced degeneration (words): failed to protect
Mouse ESC-derived MNs [3]
  toxicity to unstressed MNs: did not show any cytotoxic effects
  survival of unstressed MNs: small, but significant increase

## NCCN(CCN)/[N+]([O-])=N/O [DetaNO, diethylenetriamine/NO adduct]
Human iPSC-derived MNs [5]; 400 μM DetaNO for 24 h
  number of TUBB3-positive punctae: large increase
Human iPSC-derived MNs [5]; iPSC-derived MNs, DetaNO
  area of TUBB3-positive neurite segments: decreased

## NS(=O)(=O)c1ccc(Nc2nc(OCC3CCCCC3)c3[nH]cnc3n2)cc1 [NU6102]
Mouse ESC-derived MNs [2]
  protection of MNs from DetaNO-induced degeneration (words): not protective

## CC(=O)c1c(C)c2cnc(Nc3ccc(N4CCNCC4)cn3)nc2n(C2CCCC2)c1=O [PD332991]
Mouse ESC-derived MNs [2]
  protection of MNs from DetaNO-induced degeneration (words): not neuroprotective
CDK7 [6]
  ATP binding to CDK7: significantly reduces ATP binding
CDK9 [7]
  ATP binding to CDK9: significantly reduces ATP binding

## COc1ccc(F)c(F)c1C(=O)c1cnc(NC2CCN(S(C)(=O)=O)CC2)nc1N [R-547]
Mouse ESC-derived MNs [2]
  protection of MNs from DetaNO-induced degeneration (words): robustly protected; also recorded: rescued
Mouse ESC-derived MNs [1]
  protection of MNs from activated BV2-induced degeneration (words): robustly protected; also recorded: rescued

## CCc1cnn2c(NCc3ccc[n+]([O-])c3)cc(N3CCCC[C@H]3CCO)nc12 [dinaciclib]
Human iPSC-derived MNs [8]
  rescue of human MNs from DetaNO stress, CellTiter-Glo ATP levels: potently rescued
Mouse ESC-derived MNs [2]
  protection of MNs from DetaNO-induced degeneration (words): robustly protected
Mouse ESC-derived MNs [2]; listed as Dinaciclib
  protection of MNs from DetaNO-induced degeneration (words): rescued
Mouse ESC-derived MNs [1]
  protection of MNs from activated BV2-induced degeneration (words): robustly protected
Mouse ESC-derived MNs [1]; listed as Dinaciclib
  protection of MNs from activated BV2-induced degeneration (words): rescued
Mouse ESC-derived MNs [3]
  toxicity to unstressed MNs: induced toxicity
GSK3β
  reduction of the activity of GSK3β: about 70%
[9]
  protection of FACS-purified MNs from DetaNO-induced degeneration: protected

## CN1CC[C@H](c2c(O)cc(O)c3c(=O)cc(-c4ccccc4Cl)oc23)[C@H](O)C1 [flavopiridol]
Mouse ESC-derived MNs [2]
  protection of MNs from DetaNO-induced degeneration (words): robustly protected; also recorded: rescued
Mouse ESC-derived MNs [1]
  protection of MNs from activated BV2-induced degeneration (words): robustly protected; also recorded: rescued
Mouse ESC-derived MNs [3]
  toxicity to unstressed MNs: induced toxicity

## O=C1Cc2c([nH]c3ccc(Br)cc23)-c2ccccc2N1 [kenpaullone]
Mouse ESC-derived MNs [2]
  protection of MNs from DetaNO-induced degeneration (words): robustly protected
CDK7 [10]
  inhibition of CDK7: does not inhibit
iPSC-derived MNs; DetaNO-treated iPSC-derived MNs
  phosphopeptide levels of MAPT, MAP1B and MAP2: consistently decreased
iPSC-derived MNs; compared with MNs cultured with DetaNO
  phosphorylation levels of CLASP1, CLASP2 and DPYSL2: reduced
CDK9 [11]
  inhibition of CDK9: does not inhibit
Mouse ESC-derived MNs [3]
  toxicity to unstressed MNs: no visible toxicity
  survival of unstressed MNs: small increase in MN survival
Human iPSC-derived MNs [5]; 400 μM DetaNO, 0.625 μM kenpaullone, two iPSC lines
  protection of human MN neurites from DetaNO, TUBB3 neurite segments: robustly protected
